Reference: patent US12649751B2 (Arcus Biosciences, Inc., priority 2022, dated 2026)
Read-outs that look alike come from different tables or passages of the source.

Experiments:
[1] = test system: p-SLP-76 (Ser376) in Jurkat cells; experiment: pSLP76 Cellular Assay (AlphaLISA SureFire Ultra p-SLP-76 (Ser376), anti-CD3 activated Jurkat cells); assay type: cell-based; conditions: Homo sapiens; pSLP76 (Ser376) AlphaLISA, anti-CD3 activated Jurkat cells; read-out: Cellular Potency
Summary of the method: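 Read-out is AlphaLISA p-SLP-76 (Ser376) signal at 570 nm in Jurkat lysates, with IC50 fitted by 4-parameter logistic. Cells were starved overnight, exposed 1 h at 37 °C to 22 twofold compound dilutions in HBSS, then activated 45 min with anti-CD3 (0.025 mg/ml stock added).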

HPK1 = HPK1 (Homo sapiens, UniProt Q92918); experiment: HPK1 Biochemical Assay (ADP-Glo luminescence; low ATP 10 μM or high ATP 200 μM); conditions: HPK1 ADP-Glo assay
Chain of HPK1 (Q92918 whole entry, species assumed): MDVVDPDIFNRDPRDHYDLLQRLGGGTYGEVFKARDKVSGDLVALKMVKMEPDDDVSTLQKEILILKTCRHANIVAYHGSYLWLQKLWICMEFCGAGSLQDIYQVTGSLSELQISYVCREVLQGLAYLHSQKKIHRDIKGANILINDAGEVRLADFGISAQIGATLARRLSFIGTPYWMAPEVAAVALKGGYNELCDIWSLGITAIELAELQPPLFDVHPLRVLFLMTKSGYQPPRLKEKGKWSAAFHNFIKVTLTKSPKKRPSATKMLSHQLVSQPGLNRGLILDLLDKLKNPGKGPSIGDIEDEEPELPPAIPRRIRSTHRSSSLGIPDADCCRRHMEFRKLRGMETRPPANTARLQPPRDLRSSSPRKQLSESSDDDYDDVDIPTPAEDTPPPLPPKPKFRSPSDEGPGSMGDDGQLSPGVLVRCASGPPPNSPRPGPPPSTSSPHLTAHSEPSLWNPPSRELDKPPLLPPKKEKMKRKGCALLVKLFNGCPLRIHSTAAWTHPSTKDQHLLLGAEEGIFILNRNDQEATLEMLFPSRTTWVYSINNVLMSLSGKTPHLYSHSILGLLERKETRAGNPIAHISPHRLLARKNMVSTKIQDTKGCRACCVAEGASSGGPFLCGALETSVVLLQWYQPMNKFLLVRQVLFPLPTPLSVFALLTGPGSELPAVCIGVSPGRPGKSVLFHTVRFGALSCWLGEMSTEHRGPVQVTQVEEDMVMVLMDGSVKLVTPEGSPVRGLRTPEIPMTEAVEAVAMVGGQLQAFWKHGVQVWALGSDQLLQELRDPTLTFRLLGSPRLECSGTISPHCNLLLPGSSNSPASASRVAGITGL

[2] = high ATP (200 μM ATP, 5 nM HPK1), read-out: Biochemical Potency (high ATP)
[3] = low ATP (10 μM ATP, 2 nM HPK1), read-out: Biochemical Potency (low ATP)

IC50 [1] [nM] | IC50 (HPK1; [2]) [nM] | IC50 (HPK1; [3]) [nM] | SMILES
100 to 1000 | < 100 |  | Cc1cc(Nc2cc3nc(-c4cnn5c4COCC5)sc3cn2)nc(N2C[C@@H]3C[C@H]2CN3C)n1 [Example 385]
1000 to 5000 | < 100 |  | Cc1cc(Nc2cc3nc(-c4cnn5ccccc45)sc3cn2)nc(N2C[C@@H]3C[C@H]2CN3C)n1 [Example 386]
100 to 1000 | < 100 |  | CCC(O)(CC)c1cc(-c2nc3cc(Nc4cc(C)nc(N5C[C@@H]6C[C@H]5CN6C)n4)ncc3s2)ccn1 [Example 387]
100 to 1000 | < 100 |  | Cc1cc(Nc2cc3nc(-c4ncco4)sc3cn2)nc(N2C[C@@H]3C[C@H]2CN3C)n1 [Example 388]
1000 to 5000 | 100 to 1000 |  | CC(=O)N1CCc2c(cccc2-c2nc3cc(Nc4cc(C)nc(N5C[C@@H]6C[C@H]5CN6C)n4)ncc3s2)C1 [Example 389]
100 to 1000 | < 100 |  | Cc1cc(Nc2cc3nc(-c4cccc(OC(F)F)c4)sc3cn2)nc(N2C[C@@H]3C[C@H]2CN3C)n1 [Example 390]
1000 to 5000 | 100 to 1000 |  | Cc1cc(Nc2cc3nc(-c4ccc(=O)n(C)c4)sc3cn2)nc(N2C[C@@H]3C[C@H]2CN3C)n1 [Example 391]
100 to 1000 | < 100 |  | Cc1cc(Nc2cc3nc(-c4cccc(NC(=O)C5CC5)c4)sc3cn2)nc(N2C[C@@H]3C[C@H]2CN3C)n1 [Example 392]
100 to 1000 | < 100 |  | Cc1cc(Nc2cc3nc(-c4cccc(C5(C(=O)N(C)C)CC5)c4)sc3cn2)nc(N2C[C@@H]3C[C@H]2CN3C)n1 [Example 393]
100 to 1000 | < 100 |  | Cc1cc(Nc2cc3nc(-c4cccc(C(C)(C)C(=O)N(C)C)c4)sc3cn2)nc(N2C[C@@H]3C[C@H]2CN3C)n1 [Example 394]
100 to 1000 | 100 to 1000 |  | Cc1cc(Nc2cc3nc(-c4cccc(CC(=O)N(C)C)c4)sc3cn2)nc(N2C[C@@H]3C[C@H]2CN3C)n1 [Example 395]
100 to 1000 | < 100 |  | CC(=O)N(C)c1cccc(-c2nc3cc(Nc4cc(C)nc(N5C[C@@H]6C[C@H]5CN6C)n4)ncc3s2)c1 [Example 396]
< 100 | < 100 |  | Cc1cc(Nc2cc3nc(-c4ccnc(C5(O)CCCC5)c4)sc3cn2)nc(N2C[C@@H]3C[C@H]2CN3C)n1 [Example 397]
1000 to 5000 | 100 to 1000 |  | Cc1cc(Nc2cc3nc(-c4cccc5c4CCN(C)C5=O)sc3cn2)nc(N2C[C@@H]3C[C@H]2CN3C)n1 [Example 398]
100 to 1000 | < 100 |  | Cc1cc(Nc2cc3nc(-c4cccc(C(=O)N(C)C)c4F)sc3cn2)nc(N2C[C@@H]3C[C@H]2CN3C)n1 [Example 399]
5000 to 25000 | < 100 |  | Cc1cc(Nc2cc3nc(-c4cccc5c4CN(C)C5=O)sc3cn2)nc(N2C[C@@H]3C[C@H]2CN3C)n1 [Example 400]
100 to 1000 | < 100 |  | Cc1cc(Nc2cc3nc(-c4cccc(C(C)(C)O)c4F)sc3cn2)nc(N2C[C@@H]3C[C@H]2CN3C)n1 [Example 401]
100 to 1000 | < 100 |  | Cc1cc(Nc2cc3nc(-c4cccc(C5(O)CCC5)c4)sc3cn2)nc(N2C[C@@H]3C[C@H]2CN3C)n1 [Example 402]
100 to 1000 | < 100 |  | Cc1cc(Nc2cc3nc(-c4cccc(C5(O)CCCC5)c4)sc3cn2)nc(N2C[C@@H]3C[C@H]2CN3C)n1 [Example 403]
1000 to 5000 | < 100 |  | Cc1cc(Nc2cc3nc(-c4cccc(C5CCOCC5)c4)sc3cn2)nc(N2C[C@@H]3C[C@H]2CN3C)n1 [Example 404]
100 to 1000 | < 100 |  | CN1C[C@@H]2C[C@H]1CN2c1nccc(Nc2cc3nc(-c4cccc(S(=O)(=O)C5CC5)c4)sc3cn2)n1 [Example 405]
100 to 1000 | < 100 | < 100 | Cc1cc(Nc2cc3nc(-c4ccnc(C(C)(C)O)c4)sc3cn2)nc(N2C[C@@H]3C[C@H]2CN3C)n1 [Example 406]
< 100 | < 100 | < 100 | Cc1cc(Nc2cc3nc(-c4ncccc4C)sc3cn2)nc(N2C[C@@H]3C[C@H]2CN3)n1 [Example 407]
100 to 1000 | < 100 | < 100 | CN1C[C@@H]2C[C@H]1CN2c1nccc(Nc2cc3nc(-c4ccnc(C(C)(O)C(F)(F)F)c4)sc3cn2)n1 (stereo partly drawn) [Example 408]
100 to 1000 | < 100 | < 100 | c1cc(Nc2cc3nc(-c4ncco4)sc3cn2)nc(N2C[C@@H]3C[C@H]2CN3)n1 [Example 409]

IC50 [1] [nM] | IC50 (HPK1; [2]) [nM] | IC50 (HPK1; [3]) [nM] | SMILES
100 to 1000 | < 100 | < 100 | CN1C[C@@H]2C[C@H]1CN2c1cncc(Nc2cc3nc(-c4cccc(C(C)(O)C(F)(F)F)c4)sc3cn2)n1 (stereo partly drawn) [Example 410]
100 to 1000 | < 100 | < 100 | CN1C[C@@H]2C[C@H]1CN2c1cncc(Nc2cc3nc(-c4cccc(NS(C)(=O)=O)c4)sc3cn2)n1 [Example 412]
1000 to 5000 | < 100 | < 100 | CN1C[C@@H]2C[C@H]1CN2c1nccc(Nc2cc3nc(-c4cccc(NS(C)(=O)=O)c4)sc3cn2)n1 [Example 413]
1000 to 5000 |  | < 100 | CN1C[C@@H]2C[C@H]1CN2c1cncc(Nc2cc3nc(-c4cccc(S(=O)(=O)N(C)C)c4)sc3cn2)n1 [Example 414]
100 to 1000 |  | < 100 | CN1C[C@@H]2C[C@H]1CN2c1nccc(Nc2cc3nc(-c4cccc(S(=O)(=O)N(C)C)c4)sc3cn2)n1 [Example 415]
100 to 1000 |  | < 100 | CNS(=O)(=O)c1cccc(-c2nc3cc(Nc4cncc(N5C[C@@H]6C[C@H]5CN6C)n4)ncc3s2)c1 [Example 416]
100 to 1000 | < 100 |  | CCN1C[C@@H]2C[C@H]1CN2c1nc(C)cc(Nc2cc3nc(-c4cncc(OCC5CC5)c4)sc3cn2)n1 [Example 422]
100 to 1000 | < 100 |  | CC(=O)Nc1cccc(-c2nc3cc(Nc4cc(C)nc(N5C[C@@H]6C[C@H]5CN6C)n4)ncc3s2)c1 [Example 423]
100 to 1000 | < 100 |  | OCCN1C[C@@H]2C[C@H]1CN2c1nc(Nc2cc3nc(-c4cnn(CC5CC5)c4)sc3cn2)ccc1F [Example 424]
1000 to 5000 | < 100 |  | CCN1C[C@@H]2C[C@H]1CN2c1nc(C)cc(Nc2cc3nc(N[C@H](C)c4ccccc4)sc3cn2)n1 [Example 425]
100 to 1000 | < 100 |  | Cc1cc(Nc2cc3nc(-n4cc(F)cn4)sc3cn2)nc(N2C[C@@H]3C[C@H]2CN3C)n1 [Example 429]
100 to 1000 | < 100 | < 100 | c1cnn(-c2nc3cc(Nc4cncc(N5C[C@@H]6C[C@H]5CN6)n4)ncc3s2)c1 [Example 430]
100 to 1000 | < 100 | < 100 | c1cnn(-c2nc3cc(Nc4ccnc(N5C[C@@H]6C[C@H]5CN6)n4)ncc3s2)c1 [Example 431]
< 100 |  | < 100 | Cc1cccnc1-c1nc2cc(Nc3ccc(C4CCOCC4)c(N4C[C@@H]5C[C@H]4CN5)n3)ncc2s1 [Example 432]
< 100 |  | < 100 | Cc1cccnc1-c1nc2cc(Nc3ccc(C4CCOCC4)c(N4C[C@@H]5C[C@H]4CN5C)n3)ncc2s1 [Example 433]
100 to 1000 | < 100 |  | Cc1cccnc1-c1nc2cc(Nc3cc(-c4cnccc4C#N)cc(N4C[C@@H]5C[C@H]4CN5C)n3)ncc2s1 [Example 434]
100 to 1000 | < 100 |  | Cc1cccnc1-c1nc2cc(Nc3cc(C(C)C)nc(N4C[C@@H]5C[C@H]4CN5)n3)ncc2s1 [Example 435]
100 to 1000 | < 100 |  | Cc1cccnc1-c1nc2cc(Nc3cc(C4CC4)nc(N4C[C@@H]5C[C@H]4CN5C)n3)ncc2s1 [Example 436]
100 to 1000 |  | < 100 | CN1C[C@@H]2C[C@H]1CN2c1nc(Nc2cc3nc(-c4cncc(C(C)(C)O)c4)sc3cn2)cc(C2CCOCC2)n1 [Example 438]
< 100 | < 100 | < 100 | CN1C[C@@H]2C[C@H]1CN2c1nc(Nc2cc3nc(-c4cccc(C(C)(C)O)c4)sc3cn2)cc(C2CCOCC2)n1 [Example 440]
< 100 | < 100 | < 100 | CS(=O)(=O)c1cccc(-c2nc3cc(Nc4cc(C5CCOCC5)nc(N5C[C@@H]6C[C@H]5CN6)n4)ncc3s2)c1 [Example 443]
< 100 |  | < 100 | Cc1cccnc1-c1nc2cc(Nc3cc(C4CCOCC4)nc(N4C[C@@H]5C[C@H]4CN5)n3)ncc2s1 [Example 444]
100 to 1000 | < 100 |  | Cc1cc(Nc2cc3nc(-c4ccnc(N5C[C@@H](C)O[C@@H](C)C5)c4)sc3cn2)nc(N2C[C@@H]3C[C@H]2CN3CCO)n1 [Example 445]
100 to 1000 | < 100 |  | Cc1cc(Nc2cc3nc(-c4ccnc(N5CCO[C@@H](C)C5)c4)sc3cn2)nc(N2C[C@@H]3C[C@H]2CN3CCO)n1 [Example 446]

SMILES | IC50 [1] [nM] | IC50 (HPK1; [2]) [nM] | IC50 (HPK1; [3]) [nM]
Cc1cc(Nc2cc3nc(-c4ccnc(N5C6CCC5COC6)c4)sc3cn2)nc(N2C[C@@H]3C[C@H]2CN3CCO)n1 [Example 447] | < 100 | < 100 | 
